Publication PMC3510438, “The transmembrane tyrosines Y56, Y91 and Y167 play important roles in determining the affinity and transport rate of the rabbit proton-coupled peptide transporter PepT1” (The International Journal of Biochemistry & Cell Biology, 2009)
Where a chain is given by its changes, count along the chain named. Where a SMILES comes first, the peptide text is derived from it. [ ]: non-standard residue; d: D form. Sar = CNCC(=O)O

Tests used:
Y56A mutation of PepT1 = test system: Y56A mutation of PepT1; design: method as in Chen et al. (2000); settings: ref Chen et al. (2000); cited from earlier work
Y56F-rPepT1 [1] = biological target: T1, Y56F-rPepT1 (Oryctolagus cuniculus, UniProt P36836, Y56F); design: method as in Chen et al. (2000); settings: Y56F mutant versus wild-type; ref Chen et al. (2000); cited from earlier work
T1 construct: expressed in transfected cells; host or cells: Xenopus laevis oocytes injected with cRNA
T1 sequence (P36836 1-707 Y56F): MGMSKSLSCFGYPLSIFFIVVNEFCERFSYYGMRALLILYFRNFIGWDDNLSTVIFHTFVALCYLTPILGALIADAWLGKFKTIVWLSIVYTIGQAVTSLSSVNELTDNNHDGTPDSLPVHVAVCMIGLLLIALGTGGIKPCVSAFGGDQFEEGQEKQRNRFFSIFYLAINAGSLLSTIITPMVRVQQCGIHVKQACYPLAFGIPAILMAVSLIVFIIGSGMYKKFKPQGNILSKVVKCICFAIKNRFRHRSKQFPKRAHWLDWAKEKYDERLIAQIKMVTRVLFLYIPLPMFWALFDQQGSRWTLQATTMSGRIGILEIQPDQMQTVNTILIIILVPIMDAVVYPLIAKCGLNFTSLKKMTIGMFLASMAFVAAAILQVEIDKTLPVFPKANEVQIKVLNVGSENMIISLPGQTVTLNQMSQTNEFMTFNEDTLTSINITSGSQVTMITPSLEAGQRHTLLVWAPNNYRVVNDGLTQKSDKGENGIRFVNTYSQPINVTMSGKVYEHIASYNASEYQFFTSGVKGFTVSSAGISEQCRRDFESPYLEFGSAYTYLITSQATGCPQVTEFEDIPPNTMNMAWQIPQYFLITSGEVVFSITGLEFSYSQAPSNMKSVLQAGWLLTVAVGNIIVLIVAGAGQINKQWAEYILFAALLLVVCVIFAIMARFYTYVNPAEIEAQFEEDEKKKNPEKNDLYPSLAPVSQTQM

[2] = test system: hPepT1 with mutations of Y167; design: method as in Yeung et al., 1998; settings: transfected HEK293 cells; ref Yeung et al., 1998; cited from earlier work
wild-type rPepT1 = biological target: T2, wild-type rPepT1 (Oryctolagus cuniculus, UniProt P36836); experiment: Competition of [3H]-D-Phe-L-Gln uptake into Xenopus oocytes, Ki by method of Deves and Boyd; assay type: cell-based, rabbit; settings: pHout 5.5; inhibition of 0.4 μM [3H]-D-Phe-L-Gln uptake; n = 4
T2 construct: expressed in transfected cells; host or cells: Xenopus laevis oocytes injected with cRNA
T2 sequence (P36836 1-707): T1 sequence (P36836 1-707 Y56F) with F56Y
Description: rPepT1 constructs were linearised with XbaI (New England Biolabs, UK) and cRNA generated by in vitro transcription (T7 mMessage mMachine, Ambion, Cambridgeshire, UK). Xenopus laevis oocytes were obtained under MS222 anaesthesia (0.2%, w/v) in accordance with the UK Animals (Scientific Procedures) Act, 1986, and maintained at 18 °C in modified Barth's medium (88 mM NaCl, 1 mM KCl, 0.82 mM MgSO4, 2.4 mM NaHCO3, 0.42 mM CaCl2, 10 mM Hepes, 5 mM sodium pyruvate, 50 μg ml^−1 gentamicin (Fluka, Poole, UK), adjusted to pH 7.6 with 1 M NaOH). Transport measurements were performed at least 72 h after micro-injection of oocytes with 27nl cRNA (1 μg/μl), with medium changed daily.
Uptake of [^3H]-D-Phe-L-Gln (17.4 Ci/mmole, custom synthesised, Cambridge Research Biochemicals, Stockton-on-Tees, UK) was performed as previously described ([Meredith, 2004]). Briefly, 5 oocytes were incubated in 100 μl of uptake medium (95 mM NaCl, 2 mM KCl, 1 mM CaCl2, 0.42 mM MgCl2, 10 mM Tris/Hepes pH 7.4 or Tris/Mes pH 5.5) with tracer (0.4 μM) [^3H]-D-Phe-L-Gln. After incubation, the oocytes were washed sequentially five times in 1 ml of ice-cold 120 mM NaCl solution, lysed individually with 100 μl 2% (w/v) SDS and liquid scintillation counted. As a control non-injected oocytes were also incubated in uptake medium with D-Phe-L-Gln as above.
The affinity of wild-type and mutant rPepT1 transporters were assessed by competition studies with 0.4 μM [^3H]-D-Phe-L-Gln and Gly-L-Gln present in the uptake medium in concentrations from 0 to 2 mM using the protocol above, and the Ki calculated using the method of [Deves and Boyd (1989)].

Y56F-rPepT1 [3] = biological target: T1, Y56F-rPepT1; experiment: Competition of [3H]-D-Phe-L-Gln uptake into Xenopus oocytes, Ki; assay type: cell-based, rabbit; settings: pHout 5.5, n = 4; for Ki: inhibition of 0.4 μM [3H]-D-Phe-L-Gln uptake
Description: rPepT1 constructs were linearised with XbaI (New England Biolabs, UK) and cRNA generated by in vitro transcription (T7 mMessage mMachine, Ambion, Cambridgeshire, UK).
As a control non-injected oocytes were also incubated in uptake medium with D-Phe-L-Gln as above.

| SMILES | transport (Y56A mutation of PepT1) | reduction of transport (Y56F-rPepT1 [1]) | uptake [2] | Ki (wild-type rPepT1) [µM] | Ki (Y56F-rPepT1 [3]) [µM] | fold change in affinity (Ki), wild-type rPepT1 versus Y56F-rPepT1 (Y56F-rPepT1 [3]) [fold] |
| --- | --- | --- | --- | --- | --- | --- |
| CC(C)C[C@H](NC(=O)CN)C(=O)O [Gly-L-Leu] | lost completely | approximately 85% | – | – | – | – |
| CN(CC(=O)O)C(=O)CN [Gly-Sar] (H-Gly-[Sar]-OH) | – | – | no measurable uptake | – | – | – |
| NC(=O)[C@H](Cc1ccc(O)cc1)NC(=O)[C@@H](N)Cc1ccccc1 [Phe-Tyr-NH2] (H-Phe-Tyr-NH2) | – | – | – | 6600 ± 1620 | 72.9 ± 20.5 | 64.4 ± 26.0 |
| NC(Cc1ccccc1)C(=O)NC(Cc1ccc(O)cc1)C(=O)O (stereo not drawn) [Phe-Tyr] (H-Phe-Tyr-OH; configuration not given here) | – | – | – | 200 ± 30 | 0.86 ± 0.26 | 336.4 ± 100.6 |
